Tested on: K24384-001-R-PDC complex spheroids, viability
Test: Anticancer human tumor K24384-001-R-PDC patient-derived pancreatic adenocarcinoma cell line growth inhibition [GQUAD]
Conditions: for IC50: curve of first compound; for viability, T/C: stronger effect = lower value
Procedure, shortened: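 Viability of tumor cells grown as complex spheroids with endothelial and stromal cells, exposed to drug combinations. Top concentration at or near clinical Cmax (else 10 microM), diluted in half-log increments.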

[1] = second compound 0.0316 µM, first compound 0.0316 µM
[2] = second compound 0.0316 µM, first compound 0.1 µM
[3] = second compound 0.0316 µM, first compound 0.316 µM
[4] = second compound 0.0316 µM, first compound 1 µM
[5] = second compound 0.0316 µM, first compound 3.16 µM
[6] = second compound 0.0316 µM, first compound 10 µM
[7] = second compound 0.1 µM, first compound 0.0316 µM
[8] = second compound 0.1 µM, first compound 0.1 µM
[9] = second compound 0.1 µM, first compound 0.316 µM
[10] = second compound 0.1 µM, first compound 1 µM
[11] = second compound 0.1 µM, first compound 3.16 µM
[12] = second compound 0.1 µM, first compound 10 µM
[13] = second compound 0.316 µM, first compound 0.0316 µM
[14] = second compound 0.316 µM, first compound 0.1 µM
[15] = second compound 0.316 µM, first compound 0.316 µM
[16] = second compound 0.316 µM, first compound 1 µM
[17] = second compound 0.316 µM, first compound 3.16 µM
[18] = second compound 0.316 µM, first compound 10 µM
[19] = second compound 1 µM, first compound 0.0316 µM
[20] = second compound 1 µM, first compound 0.1 µM
[21] = second compound 1 µM, first compound 0.316 µM
[22] = second compound 1 µM, first compound 1 µM
[23] = second compound 1 µM, first compound 3.16 µM
[24] = second compound 1 µM, first compound 10 µM
[25] = second compound 3.16 µM, first compound 0.0316 µM
[26] = second compound 3.16 µM, first compound 0.1 µM
[27] = second compound 3.16 µM, first compound 0.316 µM
[28] = second compound 3.16 µM, first compound 1 µM
[29] = second compound 3.16 µM, first compound 3.16 µM
[30] = second compound 3.16 µM, first compound 10 µM
[31] = second compound 10 µM, first compound 0.0316 µM
[32] = second compound 10 µM, first compound 0.1 µM
[33] = second compound 10 µM, first compound 0.316 µM
[34] = second compound 10 µM, first compound 1 µM
[35] = second compound 10 µM, first compound 3.16 µM
[36] = second compound 10 µM, first compound 10 µM
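Further: spheroids exposed to compounds for seven days.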

Question: Which results are given for `Nc1ccn(C2OC(CO)C(O)C2(F)F)c(=O)n1` (centres undefined) + Cc1cnc(CNC(=O)c2c(=O)c3ccc(N4CCCN(C)CC4)nc3n3c2sc2ccccc23)cn1?
Answer: IC50 (second compound 0.0316 µM): 431 nM; IC50 (second compound 0.1 µM): 396 nM; IC50 (second compound 0.316 µM): < 31.6 nM; IC50 (second compound 1 µM): < 31.6 nM; IC50 (second compound 3.16 µM): < 31.6 nM; IC50 (second compound 10 µM): < 31.6 nM; viability, T/C [1]: 68%; viability, T/C [2]: 64.8%; viability, T/C [3]: 58.6%; viability, T/C [4]: 26.7%; viability, T/C [5]: 28.4%; viability, T/C [6]: 22.3%; viability, T/C [7]: 52.5%; viability, T/C [8]: 54%; viability, T/C [9]: 56.3%; viability, T/C [10]: 32.5%; viability, T/C [11]: 27.2%; viability, T/C [12]: 20.9%; viability, T/C [13]: 45.8%; viability, T/C [14]: 45.6%; viability, T/C [15]: 38.3%; viability, T/C [16]: 36.9%; viability, T/C [17]: 32.2%; viability, T/C [18]: 17.6%; viability, T/C [19]: 40.7%; viability, T/C [20]: 43.5%; viability, T/C [21]: 39.7%; viability, T/C [22]: 41%; viability, T/C [23]: 31.8%; viability, T/C [24]: 16.2%; viability, T/C [25]: 41.3%; viability, T/C [26]: 43.1%; viability, T/C [27]: 32.3%; viability, T/C [28]: 36%; viability, T/C [29]: 33.8%; viability, T/C [30]: 12.2%; viability, T/C [31]: 29.4%; viability, T/C [32]: 19.3%; viability, T/C [33]: 28.6%; viability, T/C [34]: 19.8%; viability, T/C [35]: 0.34%; viability, T/C [36]: 0.27%

Question: Which results are given for `CC1COCCN1c1cc(-c2ccnn2C)c2ccnc(-c3ccn[nH]3)c2n1` (centres undefined) + Cc1cnc(CNC(=O)c2c(=O)c3ccc(N4CCCN(C)CC4)nc3n3c2sc2ccccc23)cn1?
Answer: IC50 (second compound 0.0316 µM): 41.5 nM; IC50 (second compound 0.1 µM): < 31.6 nM; IC50 (second compound 0.316 µM): < 31.6 nM; IC50 (second compound 1 µM): < 31.6 nM; IC50 (second compound 3.16 µM): < 31.6 nM; IC50 (second compound 10 µM): < 31.6 nM; viability, T/C [1]: 53.5%; viability, T/C [2]: 37.8%; viability, T/C [3]: 40%; viability, T/C [4]: 32%; viability, T/C [5]: 34.6%; viability, T/C [6]: 29.9%; viability, T/C [7]: 48.8%; viability, T/C [8]: 51.1%; viability, T/C [9]: 34%; viability, T/C [10]: 41.5%; viability, T/C [11]: 32.2%; viability, T/C [12]: 24.4%; viability, T/C [13]: 44.8%; viability, T/C [14]: 46.4%; viability, T/C [15]: 39.4%; viability, T/C [16]: 34.7%; viability, T/C [17]: 32.8%; viability, T/C [18]: 22.7%; viability, T/C [19]: 42.9%; viability, T/C [20]: 35.2%; viability, T/C [21]: 34%; viability, T/C [22]: 37.4%; viability, T/C [23]: 25.3%; viability, T/C [24]: 22.9%; viability, T/C [25]: 32.8%; viability, T/C [26]: 37.4%; viability, T/C [27]: 31.4%; viability, T/C [28]: 26.8%; viability, T/C [29]: 21.7%; viability, T/C [30]: 19.2%; viability, T/C [31]: 25.4%; viability, T/C [32]: 21.5%; viability, T/C [33]: 20.9%; viability, T/C [34]: 24.8%; viability, T/C [35]: 10.3%; viability, T/C [36]: 8.1%

Reference: PubChem BioAssay AID2060483 (Molecular Pharmacology Branch, DTP, NCI, 2025)
